Test results taken from article PMC8844858, “Crystal structure and functional analysis of mycobacterial erythromycin resistance methyltransferase Erm38 reveals its RNA-binding site” (The Journal of Biological Chemistry, 2022).
Where two headings read alike, the source gives them in different places.

Target: T1, Erm38 (Mycolicibacterium smegmatis, UniProt Q79N53)
T1 construct: gene erm(38); truncated, residues 13-261 of 386 (disordered termini removed), about 30 kDa; synthetic codon-optimised gene in pNIC28-Bsa4, E. coli BL21(DE3)-T1R Rosetta; IMAC, cation exchange and size exclusion
Settings: 2.25 A, SAM-binding site

T1 sequence (Q79N53 entry or part of it): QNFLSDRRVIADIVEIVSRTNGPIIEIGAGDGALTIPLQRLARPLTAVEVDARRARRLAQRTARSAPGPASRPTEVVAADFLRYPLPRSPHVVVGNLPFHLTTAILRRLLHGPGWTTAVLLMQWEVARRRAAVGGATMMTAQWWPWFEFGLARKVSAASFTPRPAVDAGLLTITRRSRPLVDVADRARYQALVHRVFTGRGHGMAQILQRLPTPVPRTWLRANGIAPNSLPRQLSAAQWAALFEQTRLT

SMILES | X-ray crystal structure (soak) (2 mM SAM soaked 24 h into native crystals) | X-ray crystal structure (soak) (2 mM sinefungin soaked 24 h into native crystals)
C[S+](CC[C@H](N)C(=O)O)C[C@H]1O[C@@H](n2cnc3c(N)ncnc32)[C@H](O)[C@@H]1O (some centres unmarked) [SAM] | cocrystals with either SAM or the isosteric sinefungin inhibitor were obtained by soaking | 
Nc1ncnc2c1ncn2[C@@H]1O[C@H](C[C@@H](N)CC[C@H](N)C(=O)O)[C@@H](O)[C@H]1O [SFG, sinefungin] |  | cocrystals with either SAM or the isosteric sinefungin inhibitor were obtained by soaking
